≈ marks a conversion by molar mass, not a printed value.
Experiments:
MDA-MB-231 cells [1] = test: Cell viability of MDA-MB-231 cells; format: cell-based; conditions: Homo sapiens, 72h
Method: (§1) FIG. 8 illustrates 4T1 and MDA-MB-231 cells treated with M-I at indicated doses for 72h. The viability of control cells was arbitrarily set to 100%. Results shown are an average of three independent experiments. Data are represented as mean±SD.
(§2) The Inventors tested human MDA-MB-231 and mouse 4T1 cells in dose dependent manner (FIG. 8). […] The Inventors also tested other compounds in TNBC cell cytotoxicity assays, but these required much higher amounts (>[…]) even for ˜40% cell death.

[2] = system: normal oral keratinocytes (NOK); test: Cytotoxicity assay in normal oral keratinocytes; format: cell-based, human; conditions: 48 h
From the text: Normal oral keratinocytes (NOK) (kindly gifted by Dr. Karl Mugner, Tuffs University, Boston, MA, USA) were maintained in Keratinocyte SFM medium supplemented with EGF and bovine pituitary extract (GIBCO, Life Technologies, Berkeley, MO, USA) and 1% penicillin/ streptomycin. HNC cell line Ca127 was purchased from the ATCC. JHU029 (JHU-29) and JHU022 (JHU-22) cell lines were procured from the Johns Hopkins University (Baltimore, MD, USA). The Ca127 and JHU022 cells were maintained in Dulbecco's Modified Eagle Medium (DMEM), and JHU029 cells were in RPMI1640 (Sigma, St. Louis, Mo., USA) media supplemented with 10% FBS and 1% penicillin/ streptomycin (Sigma-Aldrich, St. Louis, Mo., USA) in a humidified CO2 incubator. The cell lines are routinely tested in the Inventors' laboratory to rule out mycoplasma contamination using a commercial Mycoplasma Detection kit (MycoAlert™, Lonza, Morrisville, N.C., USA). Ca127 cells are tongue origin and JHU022 and JHU029 cells are from larynx origin.
Ca127, JHU029, JHU022 and NOK were seeded in 96 well-plate (5000 cells/well) and cells were treated with different concentration of M-I for 48 h. There were untreated control and DMSO treated vehicle control group for comparison. Cytotoxicity assay was performed using Cell Counting Kit-8 (Dojindo Molecular Technology, Rockville, Md., USA) according to manufacturer instruction.

c-Met and c-Myc [3] = test: Western blot of Ca127 tumor lysates; format: in vivo, nude mice; conditions: Ca127 xenograft tumors
Method: (§3) Lysates from control, BME or M-I treated cells and tumors were prepared using 2 SDS sample buffer and subjected to western blot analysis using specific antibodies to c-Met (1:500, Cell Signaling Technology, CST, Denvers, Mass., USA,), phospho-STAT3 (pSTAT3-Tyr-705) (1:1000, CST), total STAT3 (1:1000, CST), c-Myc (1:1000, CST), surviving (1:500, Santa Cruz Biotechnology, SBT, Dallas, Tex., USA) and cyclin D1 (1: 500, SBT). HRP conjugated anti-mouse or anti-rabbit secondary antibodies were purchased from Bio-Rad (Hercules, Calif., USA). The blot was reprobed with HRP conjugated -actin antibody (1:5000; SBT) to compare protein load in each lane. Densitometry analysis was done using Image J software (NIH, Bethesda, Md., USA).
(§4) JHU029 or Ca127 cells (1.5 10^6) containing 40% Matrigel were injected subcutaneously into the flank of BALB/c athymic nude mice (7-8 weeks old). When the palpable tumor was developed (>60 mm3), mice were divided into three groups randomly, 5 mice in each group. The control group was without any treatment. The BME group received 30% (v/v) BME through drinking water. M-I group received 30 mg/kg dose of M-I once in day, every day. Body weight was monitored, and tumor size was measured using a slide caliper and volume was calculated using the formula 1/2 L X W2. After animal sacrifice tumors were dissected out and snap frozen in liquid nitrogen for further analysis. […]

Ca127 xenograft = test: Tumorigenicity assay, Ca127 xenograft model; format: in vivo, nude mice; conditions: M-I 30 mg/kg IP once a day, BME 30% in drinking water
Method: JHU029 or Ca127 cells (1.5 10^6) containing 40% Matrigel were injected subcutaneously into the flank of BALB/c athymic nude mice (7-8 weeks old). When the palpable tumor was developed (>60 mm3), mice were divided into three groups randomly, 5 mice in each group. The control group was without any treatment. The BME group received 30% (v/v) BME through drinking water. M-I group received 30 mg/kg dose of M-I once in day, every day. Body weight was monitored, and tumor size was measured using a slide caliper and volume was calculated using the formula 1/2 L X W2. After animal sacrifice tumors were dissected out and snap frozen in liquid nitrogen for further analysis. All the animal experiments were carried out in accordance NIH guidelines, following a protocol approved (1017) by the Institutional Animal Care and Use Committee (IACUC) of Saint Louis University.

rat cardiac fibroblasts = conditions: cited from earlier work
[4] = system: 4T1 (mouse) cells implanted into the mammary fat pad; test: Orthotopic syngeneic breast cancer mouse model (4T1); format: in vivo, Balb/c mice; conditions: M-I 30 mg/mouse/day ip; pilot study
Method: FIG. 12 illustrates 4T1 cells tumor bearing mice were randomly divided into two groups mice (n=4). Starting day of treatment by M-I (red color) or vehicle (control-blue color) graph was marked by up arrow.
The Inventors further evaluated the efficacy of M-I in orthotopic breast cancer mouse models in a pilot study. Syngeneic breast cancer model using 4T1 (mouse) cells implanted into the mammary fat pad of Balb/c mice. Mice were divided into two groups. One group received M-I (30 mg/mouse/day) and the other group received vehicle as a control by ip.

4T1 cells = test: Cell viability of 4T1 cells; format: cell-based; conditions: Mus musculus, 72h
Method: as §1, §2

MDA-MB-231 cells [5] = format: cell-based
From the text: FIG. 10A illustrates Treated or untreated cells were stained with Calcein AM (green color indicates live cells) and ethidium homodimer-1 (red color inndicates dead cells-shown by white arrows) to quantitate the live and dead cells by fluorescence microscopy with corresponding bright field images. Magnification 10X. Arrows indicate dead cells. FIG. 10B illustrates Quantitation of relative dead cells, calculated from five random fields. Small bar indicates standard error ***p<0.001).
FIG. 11 illustrates M-I activates NK cells for killing activity. MDA-MB-231 cells were co-cultured with NK cells activated by IL2, BME or M-I. After 24 hr cell lysates were prepared and subjected to Western blot analysis using specific antibodies. Left panel: Representative western blot images for cleaved PARP, expression of cleaved Caspase 9 and 3 are shown. Membrane was reprobed with antibody for Actin as an internal control.
NK cells are implicated in drug induced resistant cancer cells to drive tumor growth (Smalley et al., 2020). […] Bitter melon extract was used as a control. Control or M-I treated NK3.3 cells were also cocultured with MDA-MB-231 cells at 1:5 (Target:Effector) ratio for 24 h and stained for viable/dead cells. […] The apoptotic markers were further examined by Western blot analysis.

c-Met and c-Myc [6] = test: Western blot of JHU029 tumor lysates; format: in vivo, nude mice; conditions: JHU029 xenograft tumors
Method: as §3, §4

## CC(C)=CC(O)CC(C)[C@H]1CC[C@@]2(C)[C@@H]3[C@@H](O)C=C4[C@@H](CC[C@H](O)C4(C)C)[C@]3(C=O)CC[C@]12C (stereo partly drawn) [M-I, (3S, 7S, 8S, 9R, 10R, 13R, 14S, 17R) 3,7-dihydroxy-17-(4-hydroxy-6-methylhept-5-en-2-yl)-4,4,13,14-tetramethyl-2,3,7,8,10,11, 12,15, 16,17-decahydro-1H-cyclopenta[a]phenanthrene-9-carbaldehyde]
MDA-MB-231 cells [1]
  IC50: 12 µg/mL (≈ 25.4 µM)
[2]
  effect on human normal oral keratinocytes (NOK): minimum effect
c-Met and c-Myc [3]
  c-Met and c-Myc expression in tumors versus control: significant reduction
Ca127 xenograft
  reduction of tumor growth: −50%
Ca127 xenograft; throughout the experiment
  body weight: increasing body weight
Rat cardiac fibroblasts
  high-glucose-induced cell proliferation and collagen synthesis: inhibitory effects
[4]
  tumor volumes versus vehicle control: significantly reduced
4T1 cells
  IC50: 5 µg/mL (≈ 10.6 µM)
MDA-MB-231 cells [5]
  cytotoxicity of treated NK3.3 cells against MDA-MB-231 cells: enhanced cytotoxicity
MDA-MB-231 cells [5]; M-I treated NK cells co-cultured with MDA-MB-231 cells, 24 hr, Western blot
  caspase 9/3 and PARP cleavage in breast cancer cells: activate caspase 9/3 and PARP cleavage
c-Met and c-Myc [6]
  expression of c-Met and c-Myc in tumors versus untreated control: significant reduction
